The target of assay [1] is T1, Alkaline phosphatase, tissue-nonspecific isozyme (Homo sapiens, UniProt P05186).
T1 sequence (P05186 whole entry): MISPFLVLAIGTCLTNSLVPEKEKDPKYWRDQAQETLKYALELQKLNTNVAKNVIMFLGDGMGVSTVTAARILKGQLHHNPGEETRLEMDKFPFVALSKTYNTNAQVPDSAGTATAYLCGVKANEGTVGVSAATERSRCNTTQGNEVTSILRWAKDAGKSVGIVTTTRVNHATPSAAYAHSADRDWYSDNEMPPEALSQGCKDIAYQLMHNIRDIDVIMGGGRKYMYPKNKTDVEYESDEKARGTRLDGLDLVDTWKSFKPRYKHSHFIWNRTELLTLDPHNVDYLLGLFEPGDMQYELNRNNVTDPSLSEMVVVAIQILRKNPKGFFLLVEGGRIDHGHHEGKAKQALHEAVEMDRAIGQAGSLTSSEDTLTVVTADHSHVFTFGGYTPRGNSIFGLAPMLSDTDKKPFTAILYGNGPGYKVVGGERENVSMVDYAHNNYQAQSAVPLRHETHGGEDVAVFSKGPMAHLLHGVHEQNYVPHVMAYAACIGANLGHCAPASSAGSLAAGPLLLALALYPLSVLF

For assay [2], the target named is T2, Bcl-2-related protein A1 (Mus musculus, UniProt Q07440).
T2 sequence (Q07440 whole entry): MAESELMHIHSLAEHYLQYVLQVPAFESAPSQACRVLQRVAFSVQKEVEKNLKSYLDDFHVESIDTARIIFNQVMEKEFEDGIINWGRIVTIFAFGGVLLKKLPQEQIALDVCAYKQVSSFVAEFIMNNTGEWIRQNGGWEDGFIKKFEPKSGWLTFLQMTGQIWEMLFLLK
Briefly: small-molecule antagonists of Bfl-1/BH3 interaction – biochemical, TR-FRET, mouse Bfl-1, confirmation (AID 621).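 Note: TR-FRET binding of GST-Bfl-1 to FITC-labelled Bid peptide via terbium antibody.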 A general note: TR-FRET usually uses a lanthanide donor and a delayed reading to cut background.

The target in assay [3] is T2, Bcl-2-related protein A1. The assay can be described thus: Bfl-1 binding inhibitors, SAR follow-up, biochemical, fluorescence polarization (AID 1070). In general terms: Polarisation of emitted light reports the rotation of a fluorescent probe.
Assay [4] deals with Glyceraldehyde-3-phosphate dehydrogenase (Homo sapiens, UniProt P04406).
The next assay deals with Cytochrome P450 2D6 (Homo sapiens, UniProt P10635). Briefly: qHTS Assay for Inhibitors and Substrates of Cytochrome P450 2D6. [Related pubchem assays: 410 ]. The format is ADME. The settings on record: read-out: Potency. Background: Quantitative high-throughput screening tests each substance at several concentrations.
The target of a further assay is Cytochrome P450 3A4 (Homo sapiens, UniProt P08684). The note with it: Potency.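 Note: confirmatory qHTS run detecting inhibitors and substrates of CYP3A4.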
The target of assay [5] is Peroxisome proliferator-activated receptor gamma/Nuclear receptor coactivator 3 (Homo sapiens, UniProt P37231). The format is functional.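 Note: agonist potency for raising coactivator recruitment to the receptor.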
The target in assay [6] is Peroxisome proliferator-activated receptor gamma/Nuclear receptor coactivator 1 (Homo sapiens, UniProt P37231). The class given is functional.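 Note: agonist potency as compounds enhance coactivator SRC-1 recruitment to PPARgamma.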
The target of assay [7] is Peroxisome proliferator-activated receptor gamma/Nuclear receptor coactivator 2 (Homo sapiens, UniProt P37231). The format is functional.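 Note: agonist potency for raising coactivator recruitment to the receptor.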
The target of assay [8] is G2/mitotic-specific cyclin-B1 (Homo sapiens, UniProt P14635). Briefly: Counterscreen assay for inhibitors of Wee1 degradation: dose response cell-based assay to identify inhibitors of cyclin B degradation. [Related pubchem assays: 1410, 1321 ]. The class given is functional.
Another assay concerns the target Wee1-like protein kinase (Homo sapiens, UniProt P30291). Briefly: Dose Response Cell-based Assay for Inhibitors of Wee1 Degradation. [Related pubchem assays: 1410, 1321 ]. The class given is functional.
The target of assay [9] is T3, Oxysterols receptor LXR-beta (Homo sapiens, UniProt P55055).
T3 sequence (P55055 whole entry): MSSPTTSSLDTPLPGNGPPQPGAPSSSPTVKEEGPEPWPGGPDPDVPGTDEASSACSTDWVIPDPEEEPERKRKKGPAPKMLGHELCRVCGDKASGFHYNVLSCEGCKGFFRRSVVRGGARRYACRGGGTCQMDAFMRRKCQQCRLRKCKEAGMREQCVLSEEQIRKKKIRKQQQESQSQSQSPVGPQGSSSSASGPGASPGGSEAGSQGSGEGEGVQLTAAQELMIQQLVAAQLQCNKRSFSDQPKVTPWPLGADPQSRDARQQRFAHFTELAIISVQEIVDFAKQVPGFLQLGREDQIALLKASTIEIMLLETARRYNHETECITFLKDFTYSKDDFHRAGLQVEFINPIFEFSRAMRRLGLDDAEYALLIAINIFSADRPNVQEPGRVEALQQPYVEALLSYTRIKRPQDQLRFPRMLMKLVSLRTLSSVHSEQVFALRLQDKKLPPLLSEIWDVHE
Briefly: LXR agonists, Gal4 luciferase reporter, dose response, counter-screen for ssDAF-12 agonist project, cell-based, luminescence, HEK293, S. stercoralis campaign (AID 720737). The format is functional. The settings on record: read-out: IC50 (the source's name).

In assay [10] the target is T3, Oxysterols receptor LXR-beta. The format is functional, cell-based.
Assay [11] can be described thus: Luminescence-based cell-based high throughput dose response assay to identify activators of the DAF-12 from the parasite S. stercoralis (ssDAF-12). The format is functional.
A further assay has as its target Aspartyl aminopeptidase (Plasmodium falciparum 3D7, UniProt Q8I2J3).
The next assay has as its target Procathepsin L (Homo sapiens, UniProt P07711).

Calls of active or inactive are those of the source.

EC50, IC50 and AC50 data for six compounds are collected here from ChEMBL document CHEMBL1201862, “PubChem BioAssay data set” (2004).

Chain of Cytochrome P450 3A4 (P08684 whole entry): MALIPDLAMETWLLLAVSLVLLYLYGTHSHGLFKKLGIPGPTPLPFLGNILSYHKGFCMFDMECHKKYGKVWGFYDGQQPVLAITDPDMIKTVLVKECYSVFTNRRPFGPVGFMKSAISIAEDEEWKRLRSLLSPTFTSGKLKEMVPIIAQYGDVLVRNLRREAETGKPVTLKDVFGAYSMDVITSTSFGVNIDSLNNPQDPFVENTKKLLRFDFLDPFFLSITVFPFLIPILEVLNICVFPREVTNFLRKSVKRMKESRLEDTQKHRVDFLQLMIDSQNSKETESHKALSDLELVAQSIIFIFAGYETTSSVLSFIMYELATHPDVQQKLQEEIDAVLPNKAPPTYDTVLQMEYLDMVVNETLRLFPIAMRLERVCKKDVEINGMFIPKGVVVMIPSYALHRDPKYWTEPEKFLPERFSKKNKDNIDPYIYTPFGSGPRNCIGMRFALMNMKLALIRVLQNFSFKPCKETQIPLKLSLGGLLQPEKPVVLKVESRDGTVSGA
Chain of Glyceraldehyde-3-phosphate dehydrogenase (P04406 whole entry): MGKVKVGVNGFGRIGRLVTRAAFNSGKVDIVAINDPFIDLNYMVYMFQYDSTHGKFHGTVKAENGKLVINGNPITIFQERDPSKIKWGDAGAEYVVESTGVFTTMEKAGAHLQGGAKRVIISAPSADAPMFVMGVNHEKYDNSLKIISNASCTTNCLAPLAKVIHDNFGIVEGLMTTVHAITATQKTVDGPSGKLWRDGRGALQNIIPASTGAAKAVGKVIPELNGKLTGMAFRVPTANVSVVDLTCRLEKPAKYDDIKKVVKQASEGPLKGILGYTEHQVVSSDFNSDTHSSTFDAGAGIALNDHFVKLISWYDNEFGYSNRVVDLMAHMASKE
Chain of Aspartyl aminopeptidase (Q8I2J3 whole entry): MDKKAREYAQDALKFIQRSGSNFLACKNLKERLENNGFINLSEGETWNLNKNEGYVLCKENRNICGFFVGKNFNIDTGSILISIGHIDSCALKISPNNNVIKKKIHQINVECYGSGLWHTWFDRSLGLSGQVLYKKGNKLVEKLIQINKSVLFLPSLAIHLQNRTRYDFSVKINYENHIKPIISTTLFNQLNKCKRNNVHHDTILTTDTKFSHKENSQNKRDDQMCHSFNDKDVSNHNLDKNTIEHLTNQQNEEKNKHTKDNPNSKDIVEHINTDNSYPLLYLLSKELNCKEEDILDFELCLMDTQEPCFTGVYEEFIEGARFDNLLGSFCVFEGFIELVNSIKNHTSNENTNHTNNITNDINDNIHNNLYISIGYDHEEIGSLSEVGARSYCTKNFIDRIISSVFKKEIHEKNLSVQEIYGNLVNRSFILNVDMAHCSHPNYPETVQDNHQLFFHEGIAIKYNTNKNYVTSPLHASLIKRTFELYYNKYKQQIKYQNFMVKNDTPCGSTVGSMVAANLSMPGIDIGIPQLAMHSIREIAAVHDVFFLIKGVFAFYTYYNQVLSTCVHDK
Chain of G2/mitotic-specific cyclin-B1 (P14635 whole entry): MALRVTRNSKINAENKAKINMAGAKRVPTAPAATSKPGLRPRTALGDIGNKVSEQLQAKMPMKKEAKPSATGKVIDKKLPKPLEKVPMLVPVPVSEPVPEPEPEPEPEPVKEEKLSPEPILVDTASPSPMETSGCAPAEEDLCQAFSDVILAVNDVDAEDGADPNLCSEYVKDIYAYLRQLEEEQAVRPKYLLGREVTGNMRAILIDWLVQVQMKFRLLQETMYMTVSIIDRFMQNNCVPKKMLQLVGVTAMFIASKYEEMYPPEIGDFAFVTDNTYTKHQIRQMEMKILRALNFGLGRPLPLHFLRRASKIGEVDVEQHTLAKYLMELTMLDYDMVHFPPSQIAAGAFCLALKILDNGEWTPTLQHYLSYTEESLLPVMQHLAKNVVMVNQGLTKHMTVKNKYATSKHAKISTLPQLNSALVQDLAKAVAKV
Chain of Cytochrome P450 2D6 (P10635 whole entry): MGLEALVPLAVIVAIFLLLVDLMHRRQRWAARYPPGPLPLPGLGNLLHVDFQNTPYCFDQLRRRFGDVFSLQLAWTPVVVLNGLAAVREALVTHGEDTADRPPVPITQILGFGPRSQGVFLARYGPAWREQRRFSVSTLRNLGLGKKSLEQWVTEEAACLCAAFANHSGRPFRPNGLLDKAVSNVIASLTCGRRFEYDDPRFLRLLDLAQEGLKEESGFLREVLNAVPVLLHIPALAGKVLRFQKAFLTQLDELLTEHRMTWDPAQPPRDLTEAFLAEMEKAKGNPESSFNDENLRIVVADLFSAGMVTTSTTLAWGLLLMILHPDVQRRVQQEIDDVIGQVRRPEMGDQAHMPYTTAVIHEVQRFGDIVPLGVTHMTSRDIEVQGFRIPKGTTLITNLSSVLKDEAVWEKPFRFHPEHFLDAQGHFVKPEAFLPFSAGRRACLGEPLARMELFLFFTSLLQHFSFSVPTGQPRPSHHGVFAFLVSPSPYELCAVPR
Chain of Wee1-like protein kinase (P30291 whole entry): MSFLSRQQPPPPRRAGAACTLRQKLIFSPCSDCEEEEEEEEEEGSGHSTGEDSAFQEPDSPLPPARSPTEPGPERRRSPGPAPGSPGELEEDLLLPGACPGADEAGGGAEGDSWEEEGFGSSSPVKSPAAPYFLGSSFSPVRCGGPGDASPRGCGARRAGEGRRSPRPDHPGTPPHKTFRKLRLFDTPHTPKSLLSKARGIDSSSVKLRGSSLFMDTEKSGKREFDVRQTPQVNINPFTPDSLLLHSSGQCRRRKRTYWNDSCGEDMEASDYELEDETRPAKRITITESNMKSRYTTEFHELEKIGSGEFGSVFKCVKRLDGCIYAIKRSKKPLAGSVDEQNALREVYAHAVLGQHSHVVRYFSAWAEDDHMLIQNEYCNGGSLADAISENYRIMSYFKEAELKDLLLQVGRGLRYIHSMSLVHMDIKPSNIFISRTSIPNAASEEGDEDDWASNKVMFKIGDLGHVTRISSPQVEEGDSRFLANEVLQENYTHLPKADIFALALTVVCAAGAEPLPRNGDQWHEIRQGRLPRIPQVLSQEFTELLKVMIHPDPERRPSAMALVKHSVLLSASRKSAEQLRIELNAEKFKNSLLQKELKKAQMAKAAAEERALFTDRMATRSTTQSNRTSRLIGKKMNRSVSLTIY
Chain of Peroxisome proliferator-activated receptor gamma/Nuclear receptor coactivator 2 (P37231 whole entry): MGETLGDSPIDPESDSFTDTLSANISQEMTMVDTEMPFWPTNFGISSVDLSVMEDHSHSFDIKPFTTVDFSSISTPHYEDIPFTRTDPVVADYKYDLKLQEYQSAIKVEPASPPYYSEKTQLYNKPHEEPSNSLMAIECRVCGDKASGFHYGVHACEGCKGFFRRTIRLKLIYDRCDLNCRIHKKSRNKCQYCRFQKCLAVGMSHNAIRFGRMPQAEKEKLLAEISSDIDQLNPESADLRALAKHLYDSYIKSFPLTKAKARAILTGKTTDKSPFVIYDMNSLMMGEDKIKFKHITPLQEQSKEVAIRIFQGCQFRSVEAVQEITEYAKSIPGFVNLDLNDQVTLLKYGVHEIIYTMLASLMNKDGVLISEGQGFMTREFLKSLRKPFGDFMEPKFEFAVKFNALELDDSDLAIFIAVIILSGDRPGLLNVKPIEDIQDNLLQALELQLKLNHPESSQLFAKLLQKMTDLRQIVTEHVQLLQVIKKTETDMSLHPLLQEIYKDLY
Chain of Peroxisome proliferator-activated receptor gamma/Nuclear receptor coactivator 2 (Q15596 whole entry, further chain): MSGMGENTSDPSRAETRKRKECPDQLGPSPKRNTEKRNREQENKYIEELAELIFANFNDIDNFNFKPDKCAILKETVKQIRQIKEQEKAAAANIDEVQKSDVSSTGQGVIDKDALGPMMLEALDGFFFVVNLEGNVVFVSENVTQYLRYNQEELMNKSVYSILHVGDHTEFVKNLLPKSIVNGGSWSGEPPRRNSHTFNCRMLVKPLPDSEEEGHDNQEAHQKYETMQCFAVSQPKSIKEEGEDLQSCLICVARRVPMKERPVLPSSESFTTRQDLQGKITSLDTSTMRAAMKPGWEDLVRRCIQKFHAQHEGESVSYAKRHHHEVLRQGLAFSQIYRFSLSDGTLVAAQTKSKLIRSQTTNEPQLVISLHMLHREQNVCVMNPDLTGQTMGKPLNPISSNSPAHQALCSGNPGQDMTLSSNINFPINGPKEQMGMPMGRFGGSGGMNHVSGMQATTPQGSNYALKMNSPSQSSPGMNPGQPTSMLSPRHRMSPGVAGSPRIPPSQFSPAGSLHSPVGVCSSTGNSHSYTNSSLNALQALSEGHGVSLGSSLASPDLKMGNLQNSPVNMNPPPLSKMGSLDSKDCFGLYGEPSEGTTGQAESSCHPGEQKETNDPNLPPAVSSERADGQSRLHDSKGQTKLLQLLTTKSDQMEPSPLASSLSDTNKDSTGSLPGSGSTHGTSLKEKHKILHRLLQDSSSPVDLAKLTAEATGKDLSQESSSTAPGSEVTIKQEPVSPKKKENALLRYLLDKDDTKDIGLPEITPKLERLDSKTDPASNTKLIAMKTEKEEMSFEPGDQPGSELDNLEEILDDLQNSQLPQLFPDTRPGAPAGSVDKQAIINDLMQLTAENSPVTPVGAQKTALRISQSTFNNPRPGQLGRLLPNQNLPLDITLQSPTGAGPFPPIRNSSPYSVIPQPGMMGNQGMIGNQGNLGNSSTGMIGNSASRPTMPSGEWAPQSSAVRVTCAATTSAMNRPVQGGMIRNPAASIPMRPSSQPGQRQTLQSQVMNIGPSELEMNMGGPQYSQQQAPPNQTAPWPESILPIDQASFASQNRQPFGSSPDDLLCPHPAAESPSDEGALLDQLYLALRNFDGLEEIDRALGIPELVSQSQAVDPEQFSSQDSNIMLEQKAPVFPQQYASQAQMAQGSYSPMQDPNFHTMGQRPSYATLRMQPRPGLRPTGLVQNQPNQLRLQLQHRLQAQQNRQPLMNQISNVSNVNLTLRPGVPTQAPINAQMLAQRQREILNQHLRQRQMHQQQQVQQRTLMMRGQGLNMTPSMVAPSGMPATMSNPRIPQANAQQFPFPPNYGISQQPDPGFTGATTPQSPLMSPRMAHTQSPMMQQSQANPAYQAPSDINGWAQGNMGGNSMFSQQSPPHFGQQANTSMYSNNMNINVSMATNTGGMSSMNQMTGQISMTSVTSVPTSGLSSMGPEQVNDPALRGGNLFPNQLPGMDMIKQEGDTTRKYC

As for `Cn1cc(Cl)c(C(=O)NNC(=S)NC2CCCCC2)n1`, the EC50 in assay [1] is 41 µM (active).
As to `O=C1C(Cl)=C(N2CCOCC2)C(=O)N1c1cccc(Cl)c1Cl`, the IC50 was 1.52 µM (active) at Bcl-2-related protein A1 [2], 4.05 µM (active) at Bcl-2-related protein A1 [3] and > 10 µM (inconclusive) in assay [4].
Take `Cc1nc(/N=N\c2ccc(C(=O)O)cc2)c(COP(=O)(O)O)c(C=O)c1O`: the values for the AC50 at Cytochrome P450 2D6 and on Cytochrome P450 3A4 were 39.8 µM (inconclusive) and 10 µM (inconclusive), respectively.
For `Cc1cc(=O)[nH]c2c1c(C)nn2C1CCCC1`, the EC50 in assay [5], in assay [6] and in assay [7] was > 79.4 µM (not active) in each case.
`CC(=O)Nc1ccc(/C=N/Nc2nc3ccccc3s2)cc1`: the EC50 in “cells” was > 67.5 µM (inactive); in [8] it was > 49.7 µM (not active); at Wee1-like protein kinase, > 49.7 µM (not active); in [9], > 67.5 µM (inactive); in [10], > 67.5 µM (inactive). The IC50 in assay [11] is > 67.5 µM (inactive).
Regarding `COc1ccc(Cl)cc1NC(=O)Nn1cnnc1`, the IC50 on Aspartyl aminopeptidase was 0.832 µM (active); at Procathepsin L, > 59.6 µM (not active).

In general, IC50 refers to the concentration that inhibits the measured activity by half.
